Laboratory results taken from ChEMBL document CHEMBL2074501, “Inhibition of P-glycoprotein by newer antidepressants” (J Pharmacol Exp Ther, 2003).

These compounds were tested against ATP-dependent translocase ABCB1 (Homo sapiens, UniProt P08183) (assay: TP_TRANSPORTER: cell accumulation of calcein in L-MDR1 cells). Details: not given.
Format: functional, cell-based

Sequence of ATP-dependent translocase ABCB1 (P08183 whole entry): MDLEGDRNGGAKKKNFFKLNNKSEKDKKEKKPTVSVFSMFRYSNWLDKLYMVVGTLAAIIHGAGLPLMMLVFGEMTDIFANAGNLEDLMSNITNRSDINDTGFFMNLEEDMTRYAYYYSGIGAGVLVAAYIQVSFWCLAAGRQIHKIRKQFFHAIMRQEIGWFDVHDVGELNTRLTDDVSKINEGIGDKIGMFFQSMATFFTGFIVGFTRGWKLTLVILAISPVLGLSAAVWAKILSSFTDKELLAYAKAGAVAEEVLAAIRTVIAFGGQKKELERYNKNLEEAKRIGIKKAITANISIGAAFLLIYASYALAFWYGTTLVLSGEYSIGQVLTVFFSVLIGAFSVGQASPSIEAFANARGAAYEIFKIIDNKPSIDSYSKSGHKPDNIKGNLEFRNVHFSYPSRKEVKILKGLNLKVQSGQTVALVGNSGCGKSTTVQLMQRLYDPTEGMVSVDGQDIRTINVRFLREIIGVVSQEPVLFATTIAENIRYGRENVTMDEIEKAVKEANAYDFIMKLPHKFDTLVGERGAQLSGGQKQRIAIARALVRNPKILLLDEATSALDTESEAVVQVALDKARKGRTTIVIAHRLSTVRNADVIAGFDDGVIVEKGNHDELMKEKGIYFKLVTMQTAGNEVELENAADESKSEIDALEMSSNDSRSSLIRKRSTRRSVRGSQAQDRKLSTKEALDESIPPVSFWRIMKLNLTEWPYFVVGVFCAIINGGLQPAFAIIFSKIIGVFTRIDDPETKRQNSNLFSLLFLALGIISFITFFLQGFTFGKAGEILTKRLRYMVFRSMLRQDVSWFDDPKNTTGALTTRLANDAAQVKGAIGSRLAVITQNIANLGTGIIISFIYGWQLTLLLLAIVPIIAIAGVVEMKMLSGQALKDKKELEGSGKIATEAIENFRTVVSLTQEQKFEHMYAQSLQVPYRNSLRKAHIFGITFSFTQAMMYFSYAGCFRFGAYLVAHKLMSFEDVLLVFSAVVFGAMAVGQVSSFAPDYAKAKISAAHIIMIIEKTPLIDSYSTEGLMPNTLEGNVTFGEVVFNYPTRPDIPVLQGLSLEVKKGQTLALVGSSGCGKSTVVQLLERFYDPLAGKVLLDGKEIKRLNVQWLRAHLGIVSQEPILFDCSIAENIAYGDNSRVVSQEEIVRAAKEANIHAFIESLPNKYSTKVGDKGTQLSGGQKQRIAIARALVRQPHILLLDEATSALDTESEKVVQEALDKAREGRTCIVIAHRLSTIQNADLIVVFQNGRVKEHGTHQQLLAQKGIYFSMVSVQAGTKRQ

Compound | IC50 [µM]
Fc1ccc([C@@H]2CCNC[C@H]2COc2ccc3c(c2)OCO3)cc1 [PAROXETINE] | 29.8
CN[C@H]1CC[C@@H](c2ccc(Cl)c(Cl)c2)c2ccccc21 [SERTRALINE] | 31.8

Same assay, conditions: pig, l-mdr1

Compound | Activity
COCCCC/C(=N\OCCN)c1ccc(C(F)(F)F)cc1 [FLUVOXAMINE] | inhibitor [+]
N[C@H]1CC[C@@H](c2ccc(Cl)c(Cl)c2)c2ccccc21 | inhibitor [+]
C/C=C/C[C@@H](C)C(=O)[C@H]1C(=O)N[C@@H](C(C)C)C(=O)N(C)CC(=O)N(C)[C@@H](CC(C)C)C(=O)N[C@@H](C(C)C)C(=O)N(C)[C@@H](CC(C)C)C(=O)N[C@@H](C)C(=O)N[C@H](C)C(=O)N(C)[C@@H](CC(C)C)C(=O)N(C)[C@@H](CC(C)C)C(=O)N(C)[C@@H](C(C)C)C(=O)N1C | inhibitor [+]
COc1ccc(C(CN(C)C)C2(O)CCCCC2)cc1 (configuration not stated) [VENLAFAXINE] | inhibitor [+]
CNCC(c1ccc(OC)cc1)C1(O)CCCCC1 (configuration not stated) [N-DESMETHYLVENLAFAXINE] | inhibitor [+]
NCCC(Oc1ccc(C(F)(F)F)cc1)c1ccccc1 (configuration not stated) [NORFLUOXETINE] | inhibitor [+]
CNCCCC1(c2ccc(F)cc2)OCc2cc(C#N)ccc21 (configuration not stated) [DESMETHYLCITALOPRAM] | inhibitor [+]
CN(C)CCCC1(c2ccc(F)cc2)OCc2cc(C#N)ccc21 (configuration not stated) [CITALOPRAM] | inhibitor [+]
CN(C)CC(c1ccc(O)cc1)C1(O)CCCCC1 (configuration not stated) [DESVENLAFAXINE] | is not an inhibitor [-]
COc1cc(OC[C@@H]2CNCC[C@H]2c2ccc(F)cc2)ccc1O [Paroxetine-M] | inhibitor [+]
